Assay [1] has as its target C-C chemokine receptor type 2 (Homo sapiens, UniProt P41597). The format is cell membranes, CHO-K1, Membrane.
For assay [2], the target named is T1, Glucocorticoid receptor (Homo sapiens, UniProt P04150).
T1 sequence (P04150 whole entry): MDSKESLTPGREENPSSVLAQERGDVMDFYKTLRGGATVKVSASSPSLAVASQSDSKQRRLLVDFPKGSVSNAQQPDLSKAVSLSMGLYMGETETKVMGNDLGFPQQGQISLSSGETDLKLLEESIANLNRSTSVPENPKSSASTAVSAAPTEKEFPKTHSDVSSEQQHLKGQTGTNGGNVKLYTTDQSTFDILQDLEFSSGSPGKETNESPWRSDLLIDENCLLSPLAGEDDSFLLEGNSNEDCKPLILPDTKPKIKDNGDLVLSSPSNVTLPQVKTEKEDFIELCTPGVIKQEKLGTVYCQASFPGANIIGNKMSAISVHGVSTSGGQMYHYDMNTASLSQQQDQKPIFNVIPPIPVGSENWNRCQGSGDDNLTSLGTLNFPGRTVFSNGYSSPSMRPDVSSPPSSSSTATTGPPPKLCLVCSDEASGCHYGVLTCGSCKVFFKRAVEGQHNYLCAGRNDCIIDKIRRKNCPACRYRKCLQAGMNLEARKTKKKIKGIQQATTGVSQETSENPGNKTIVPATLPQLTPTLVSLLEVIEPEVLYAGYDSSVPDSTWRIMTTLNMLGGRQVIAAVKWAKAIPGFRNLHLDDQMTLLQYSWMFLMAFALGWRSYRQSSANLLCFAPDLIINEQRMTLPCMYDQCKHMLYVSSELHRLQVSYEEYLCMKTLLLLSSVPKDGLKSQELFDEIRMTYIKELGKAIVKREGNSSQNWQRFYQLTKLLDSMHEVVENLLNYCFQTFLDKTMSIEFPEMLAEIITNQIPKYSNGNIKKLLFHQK
Kind of assay: biochemical.

In assay [3] the target is Cytochrome P450 2C19 (Homo sapiens, UniProt P33261).
Cytochrome P450 2C19, sequence (P33261 whole entry): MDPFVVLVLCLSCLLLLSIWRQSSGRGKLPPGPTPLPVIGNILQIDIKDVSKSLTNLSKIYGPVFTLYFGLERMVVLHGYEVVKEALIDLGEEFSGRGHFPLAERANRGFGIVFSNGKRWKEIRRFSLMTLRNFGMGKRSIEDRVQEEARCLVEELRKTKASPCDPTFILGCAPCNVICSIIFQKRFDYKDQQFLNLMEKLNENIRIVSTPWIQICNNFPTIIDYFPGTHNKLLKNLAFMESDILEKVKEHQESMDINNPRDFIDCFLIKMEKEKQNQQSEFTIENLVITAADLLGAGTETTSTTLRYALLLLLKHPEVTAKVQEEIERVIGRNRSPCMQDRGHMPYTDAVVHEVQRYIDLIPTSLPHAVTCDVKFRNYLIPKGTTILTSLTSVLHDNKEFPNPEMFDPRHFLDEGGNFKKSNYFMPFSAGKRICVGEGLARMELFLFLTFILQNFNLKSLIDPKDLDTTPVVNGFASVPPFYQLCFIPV
In assay [4] the target is Voltage-gated inwardly rectifying potassium channel KCNH2 (Homo sapiens, UniProt Q12809).
Voltage-gated inwardly rectifying potassium channel KCNH2, sequence (Q12809 whole entry): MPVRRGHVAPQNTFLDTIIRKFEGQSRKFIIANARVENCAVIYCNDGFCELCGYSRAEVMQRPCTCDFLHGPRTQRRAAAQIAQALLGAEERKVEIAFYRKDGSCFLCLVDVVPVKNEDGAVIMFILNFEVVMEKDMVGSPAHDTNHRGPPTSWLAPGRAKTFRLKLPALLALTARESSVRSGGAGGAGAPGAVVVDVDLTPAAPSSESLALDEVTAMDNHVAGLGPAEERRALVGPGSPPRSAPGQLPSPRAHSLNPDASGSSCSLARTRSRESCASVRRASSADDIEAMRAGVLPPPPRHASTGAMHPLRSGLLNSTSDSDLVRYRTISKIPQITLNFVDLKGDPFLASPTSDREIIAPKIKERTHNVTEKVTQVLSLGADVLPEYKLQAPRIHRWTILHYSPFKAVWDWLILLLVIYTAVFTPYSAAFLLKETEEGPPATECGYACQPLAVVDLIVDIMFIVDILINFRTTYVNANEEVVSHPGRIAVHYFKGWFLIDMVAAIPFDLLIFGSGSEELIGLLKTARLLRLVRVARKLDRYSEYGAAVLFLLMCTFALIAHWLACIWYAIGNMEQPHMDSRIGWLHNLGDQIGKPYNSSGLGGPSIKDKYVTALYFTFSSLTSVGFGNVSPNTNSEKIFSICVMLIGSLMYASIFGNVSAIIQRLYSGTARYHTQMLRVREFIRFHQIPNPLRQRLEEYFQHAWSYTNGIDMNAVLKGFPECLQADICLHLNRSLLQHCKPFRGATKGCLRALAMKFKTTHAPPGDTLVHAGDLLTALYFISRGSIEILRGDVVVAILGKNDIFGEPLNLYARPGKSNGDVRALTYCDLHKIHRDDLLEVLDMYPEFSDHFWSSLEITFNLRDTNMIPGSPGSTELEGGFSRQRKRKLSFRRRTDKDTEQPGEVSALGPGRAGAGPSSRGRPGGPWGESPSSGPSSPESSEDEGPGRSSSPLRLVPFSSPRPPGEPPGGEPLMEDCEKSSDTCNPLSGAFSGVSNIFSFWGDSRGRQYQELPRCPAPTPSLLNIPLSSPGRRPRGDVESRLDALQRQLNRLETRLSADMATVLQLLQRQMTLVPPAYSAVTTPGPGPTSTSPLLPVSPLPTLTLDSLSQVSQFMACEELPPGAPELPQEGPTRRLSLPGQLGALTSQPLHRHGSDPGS
In assay [5] the target is T2, Cytochrome P450 1A2 (Homo sapiens, UniProt P05177).
T2 sequence (P05177 whole entry): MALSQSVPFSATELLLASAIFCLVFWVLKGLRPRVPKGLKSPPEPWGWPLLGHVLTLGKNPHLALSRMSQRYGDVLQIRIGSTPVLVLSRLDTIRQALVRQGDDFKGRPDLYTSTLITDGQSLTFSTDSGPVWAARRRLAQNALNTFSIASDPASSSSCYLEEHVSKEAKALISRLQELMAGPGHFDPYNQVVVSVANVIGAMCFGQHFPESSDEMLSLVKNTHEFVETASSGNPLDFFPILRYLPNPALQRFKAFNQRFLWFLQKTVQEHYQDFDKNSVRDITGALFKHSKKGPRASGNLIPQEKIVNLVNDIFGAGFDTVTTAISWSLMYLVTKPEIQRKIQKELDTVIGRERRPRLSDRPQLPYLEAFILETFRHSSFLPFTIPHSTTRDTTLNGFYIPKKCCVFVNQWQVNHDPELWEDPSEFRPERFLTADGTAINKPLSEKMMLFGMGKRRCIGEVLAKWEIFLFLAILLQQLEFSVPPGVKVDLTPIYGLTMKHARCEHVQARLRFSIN

Assay [6] deals with T3, Androgen receptor (Rattus norvegicus, UniProt P15207).
T3 sequence (P15207 whole entry): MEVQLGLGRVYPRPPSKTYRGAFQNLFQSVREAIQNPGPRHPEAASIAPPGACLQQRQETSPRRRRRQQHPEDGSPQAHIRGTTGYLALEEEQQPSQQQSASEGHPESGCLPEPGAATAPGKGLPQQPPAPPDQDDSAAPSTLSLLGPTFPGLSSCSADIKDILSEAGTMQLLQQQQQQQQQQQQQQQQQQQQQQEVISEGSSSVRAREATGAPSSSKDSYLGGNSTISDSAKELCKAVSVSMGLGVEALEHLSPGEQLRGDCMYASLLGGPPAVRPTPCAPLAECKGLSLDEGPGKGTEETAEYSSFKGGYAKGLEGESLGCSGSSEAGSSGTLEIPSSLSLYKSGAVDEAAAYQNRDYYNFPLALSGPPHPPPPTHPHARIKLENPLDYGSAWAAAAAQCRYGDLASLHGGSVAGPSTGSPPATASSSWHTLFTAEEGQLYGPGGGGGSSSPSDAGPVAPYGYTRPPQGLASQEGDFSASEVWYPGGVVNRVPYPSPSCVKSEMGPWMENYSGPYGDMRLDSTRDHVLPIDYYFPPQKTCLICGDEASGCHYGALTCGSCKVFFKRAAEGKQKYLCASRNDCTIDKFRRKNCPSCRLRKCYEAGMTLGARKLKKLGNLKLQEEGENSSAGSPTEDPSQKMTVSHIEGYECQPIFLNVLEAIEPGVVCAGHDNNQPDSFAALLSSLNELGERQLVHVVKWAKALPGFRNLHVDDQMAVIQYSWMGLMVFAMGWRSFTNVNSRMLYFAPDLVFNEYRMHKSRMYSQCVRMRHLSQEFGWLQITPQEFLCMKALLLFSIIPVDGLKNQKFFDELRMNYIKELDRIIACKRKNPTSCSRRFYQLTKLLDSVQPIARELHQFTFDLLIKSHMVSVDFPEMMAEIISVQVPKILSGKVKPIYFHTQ

Assay [7] addresses Cytochrome P450 2C9 (Homo sapiens, UniProt P11712).
Assay [8] deals with Cytochrome P450 2D6 (Homo sapiens, UniProt P10635).
Cytochrome P450 2D6, sequence (P10635 whole entry): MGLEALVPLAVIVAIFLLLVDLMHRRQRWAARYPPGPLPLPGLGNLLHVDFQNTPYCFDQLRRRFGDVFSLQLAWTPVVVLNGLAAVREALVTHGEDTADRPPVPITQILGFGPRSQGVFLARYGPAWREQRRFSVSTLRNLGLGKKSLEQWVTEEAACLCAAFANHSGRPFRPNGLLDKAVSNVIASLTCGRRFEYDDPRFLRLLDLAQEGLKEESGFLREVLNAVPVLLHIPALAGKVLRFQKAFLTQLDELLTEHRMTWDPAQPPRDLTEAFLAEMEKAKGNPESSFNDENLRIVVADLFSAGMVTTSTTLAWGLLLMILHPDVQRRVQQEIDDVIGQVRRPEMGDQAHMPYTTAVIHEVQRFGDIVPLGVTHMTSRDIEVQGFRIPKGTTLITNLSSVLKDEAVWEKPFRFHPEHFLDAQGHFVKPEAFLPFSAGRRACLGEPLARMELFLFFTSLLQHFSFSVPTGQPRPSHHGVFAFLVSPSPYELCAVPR

pIC50, pKi: −log10 of the molar value.

Experimental findings from ChEMBL document CHEMBL1909046, “DrugMatrix in vitro pharmacology data” are described below.
Note: in other assays of this panel Not Active means under 50% inhibition at 10 µM.

C-C chemokine receptor type 2, sequence (P41597 whole entry): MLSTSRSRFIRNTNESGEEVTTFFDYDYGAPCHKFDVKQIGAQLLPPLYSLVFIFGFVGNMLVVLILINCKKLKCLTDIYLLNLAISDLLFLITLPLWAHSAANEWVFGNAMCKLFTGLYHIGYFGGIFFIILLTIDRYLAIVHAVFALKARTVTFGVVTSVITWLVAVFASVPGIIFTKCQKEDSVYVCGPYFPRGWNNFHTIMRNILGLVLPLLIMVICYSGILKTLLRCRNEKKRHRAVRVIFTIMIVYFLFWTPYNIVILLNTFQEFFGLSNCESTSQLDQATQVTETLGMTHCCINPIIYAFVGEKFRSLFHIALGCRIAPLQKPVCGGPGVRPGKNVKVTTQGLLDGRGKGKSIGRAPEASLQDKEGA
Cytochrome P450 2C9, sequence (P11712 whole entry): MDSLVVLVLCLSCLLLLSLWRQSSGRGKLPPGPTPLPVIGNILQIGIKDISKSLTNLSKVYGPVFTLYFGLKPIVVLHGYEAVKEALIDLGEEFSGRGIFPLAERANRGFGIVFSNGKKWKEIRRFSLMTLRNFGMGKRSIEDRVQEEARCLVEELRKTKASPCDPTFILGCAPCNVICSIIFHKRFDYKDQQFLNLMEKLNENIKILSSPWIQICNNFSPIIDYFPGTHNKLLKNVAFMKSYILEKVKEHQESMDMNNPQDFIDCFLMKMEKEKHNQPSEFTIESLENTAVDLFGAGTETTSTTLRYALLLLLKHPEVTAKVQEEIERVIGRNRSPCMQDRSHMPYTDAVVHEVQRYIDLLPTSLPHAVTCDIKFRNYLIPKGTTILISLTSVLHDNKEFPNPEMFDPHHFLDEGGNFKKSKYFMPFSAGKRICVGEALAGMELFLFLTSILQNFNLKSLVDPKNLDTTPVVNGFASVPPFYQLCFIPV

As to `CC(C)(C)NC(=O)[C@@H]1C[C@@H]2CCCC[C@@H]2CN1C[C@@H](O)[C@H](Cc1ccccc1)NC(=O)[C@H](CC(N)=O)NC(=O)c1ccc2ccccc2n1`, the IC50 result in assay [1] (cho-k1) is given as “Not Active”.
On to `CC1(C)O[C@@H]2C[C@H]3[C@@H]4CCC5=CC(=O)C=C[C@]5(C)[C@@]4(F)[C@@H](O)C[C@]3(C)[C@]2(C(=O)CO)O1` [TRIAMCINOLONE ACETONIDE], for which, in assay [2], the pIC50 (in general, the IC50 on a negative log10 scale, so that one unit is a factor of ten) is 8.36 and the pKi (as a rule, the negative decadic logarithm of the Ki, by convention in mol/L) was 8.70. Besides, in assay [1] (cho-k1), the IC50 result is reported as “Not Active”.
In the case of `Cc1cccc(N(C)C(=S)Oc2ccc3ccccc3c2)c1` [TOLNAFTATE], in assay [3], the pIC50 was 5.52. The IC50 result in assay [1] (cho-k1) is on record as “Not Active”.
As to `C[C@@H]1CN(c2c(F)c(N)c3c(=O)c(C(=O)O)cn(C4CC4)c3c2F)C[C@H](C)N1` [SPARFLOXACIN], in assay [1] (cho-k1), the IC50 entry is recorded as “Not Active”. In assay [4], this compound showed a pIC50 of 4.33 and a pKi of 4.41.
Turning to `Cn1ccnc1S` [METHIMAZOLE], the IC50 result in assay [1] (cho-k1) is reported as “Not Active”.
Compound `CN1CCN(CCCN2c3ccccc3Sc3ccc(Cl)cc32)CC1` [PROCHLORPERAZINE] showed a pIC50 in assay [5] of 5.70. Further, the IC50 result in assay [1] (cho-k1) is “Not Active”.
`C=CCC1(C(C)CCC)C(=O)NC(=O)NC1=O` (stereo not given) [SECOBARBITAL]: the IC50 result in assay [1] (cho-k1) is reported as “Not Active”.
For `N[C@@H](Cc1ccc(N(CCCl)CCCl)cc1)C(=O)O`, the IC50 entry in assay [1] (cho-k1) is given as “Not Active”.
In the case of `Nc1nc2ccc(OC(F)(F)F)cc2s1` [RILUZOLE], the IC50 entry in assay [1] (cho-k1) is on record as “Not Active”.
Turning to `N[C@@H]1[C@H]2CN(c3nc4c(cc3F)c(=O)c(C(=O)O)cn4-c3ccc(F)cc3F)C[C@@H]12` [TROVAFLOXACIN], the IC50 entry in assay [1] (cho-k1) and in assay [6] was “Not Active” each time.
With `COc1c(C)c2c(c(O)c1C/C=C(\C)CCC(=O)O)C(=O)OC2` [MYCOPHENOLIC ACID], the IC50 result in assay [1] (cho-k1) is reported as “Not Active”.
Regarding `CCCOc1ccccc1-c1nc2nn[nH]c2c(=O)[nH]1` [ZAPRINAST], the IC50 entry in assay [1] (cho-k1) is reported as “Not Active”.
For `Nc1nc2nc[nH]c2c(=S)[nH]1` [THIOGUANINE], the IC50 entry in assay [1] (cho-k1) and in assay [6] was “Not Active” in each case.
For the compound `Cc1c(C)c2c(c(C)c1O)CCC(C)(COc1ccc(CC3SC(=O)NC3=O)cc1)O2` (stereo not given) [TROGLITAZONE], the pIC50 in assay [7] was 5.40. Also, the IC50 result in assay [1] (cho-k1) and in assay [6] was “Not Active” each time.
`Cc1nc2n(c(=O)c1CCN1CCC(c3noc4cc(F)ccc34)CC1)CCCC2` [RISPERIDONE] gave a pIC50 in assay [8] of 5.28. In assay [1] (cho-k1), the IC50 entry is on record as “Not Active”.
For `COc1nc(C)nc(Cl)c1NC1=NCCN1` [MOXONIDINE], the IC50 entry in assay [1] (cho-k1) was “Not Active”.
For `N[C@@H](Cc1cc(I)c(Oc2ccc(O)c(I)c2)c(I)c1)C(=O)O` [LIOTHYRONINE], the IC50 entry in assay [1] (cho-k1) was “Not Active”.
For the compound `OCCN(CCO)c1nc(N2CCCCC2)c2nc(N(CCO)CCO)nc(N3CCCCC3)c2n1` [DIPYRIDAMOLE], the IC50 result in assay [1] (cho-k1) and in assay [6] was “Not Active” each time.
As for `O=NN(CCCl)C(=O)NC1CCCCC1` [LOMUSTINE], the IC50 result in assay [1] (cho-k1) is recorded as “Not Active”.
Take `O=c1ncn2nc(Sc3ccc(F)cc3F)ccc2c1-c1c(Cl)cccc1Cl` [NEFLAMAPIMOD]: the IC50 result in assay [1] (cho-k1) and in assay [6] was “Not Active” throughout.
For the compound `CC[C@]1(O)C[C@H]2CN(CCc3c([nH]c4ccccc34)[C@@](C(=O)OC)(c3cc4c(cc3OC)N(C=O)[C@H]3[C@@](O)(C(=O)OC)[C@H](OC(C)=O)[C@]5(CC)C=CCN6CC[C@]43[C@@H]65)C2)C1` [VINCRISTINE], the IC50 result in assay [1] (cho-k1) and in assay [6] was “Not Active” in each case.
In assay [5], `CSc1ccc(/C=C2/C(C)=C(CC(=O)O)c3cc(F)ccc32)cc1` [SULINDAC SULFIDE] had a negative-log IC50 (pIC50) of 5.70. In addition, the IC50 result in assay [1] (cho-k1) and in assay [6] was “Not Active” each time.
For the compound `CC(=O)[C@@]1(O)CC[C@H]2[C@@H]3C[C@H](C)C4=CC(=O)CC[C@]4(C)[C@H]3CC[C@@]21C`, the pIC50 in assay [3] is 5.70. Moreover, in assay [2], the pIC50 is 7.72 and the pKi is 8.07. Besides, the IC50 result in assay [1] (cho-k1) is reported as “Not Active”.
In the case of `Cc1noc(NS(=O)(=O)c2ccc(N)cc2)c1C` [SULFISOXAZOLE], in assay [1] (cho-k1), the IC50 entry is “Not Active”.
As for `CCCCc1oc2ccccc2c1C(=O)c1cc(I)c(OCCN(CC)CC)c(I)c1` [AMIODARONE], the pIC50 in assay [1] (read-out: IC50) was 4.96. For the same compound, the pKi in assay [1] (read-out: Ki) was 5.37.
Take `N[C@@H](Cc1ccc(O)c(O)c1)C(=O)O` [LEVODOPA]: in assay [1] (cho-k1), the IC50 entry is recorded as “Not Active”.
Turning to `NS(=O)(=O)c1cc2c(cc1Cl)NC(C(Cl)Cl)NS2(=O)=O` (stereo not given) [TRICHLORMETHIAZIDE], in assay [1] (cho-k1), the IC50 result is reported as “Not Active”.
Compound `Nc1c2c(nc3ccccc13)CCCC2` [TACRINE] had a pIC50 in assay [8] of 6.52. In assay [1] (cho-k1), the IC50 result was “Not Active”.
With `NC[C@H]1CC[C@H](C(=O)O)CC1` [TRANEXAMIC ACID], in assay [1] (cho-k1), the IC50 entry is on record as “Not Active”.
On the same count and under the same terms, as for `CCOC(=O)N1CCC(=C2c3ccc(Cl)cc3CCc3cccnc32)CC1` [LORATADINE], the entry is “Not Active”; as for `c1ccc([C@H]2CN3CCSC3=N2)cc1` [LEVAMISOLE], “Not Active”; as for `CC(C)N1CCN(c2ccc(OCC3COC(Cn4cncn4)(c4ccc(Cl)cc4Cl)O3)cc2)CC1` (stereo not given) [TERCONAZOLE], “Not Active”.
As to `CC[C@@H](CO)NC(=O)[C@@H]1C=C2c3cccc4[nH]cc(c34)C[C@H]2N(C)C1` [METHYLERGONOVINE], the IC50 entry in assay [1] (cho-k1) and in assay [6] was “Not Active” throughout.
For the compound `CC/C(=C(\c1ccccc1)c1ccc(OCCN(C)C)cc1)c1ccccc1` [TAMOXIFEN], the IC50 entry in assay [1] (cho-k1) is on record as “Not Active”.
Consider SODIUM NITROPRUSSIDE, for which, in assay [1] (cho-k1), the IC50 result is “Not Active” and the Ki result is “Not Active”. Moreover, in assay [6], the IC50 result is listed as “Not Active” and the Ki result is “Not Active”.
Take `CO[C@H]1/C=C/O[C@@]2(C)Oc3c(C)c(O)c4c(O)c(c(/C=N/N5CCN(C)CC5)c(O)c4c3C2=O)NC(=O)/C(C)=C\C=C\[C@H](C)[C@H](O)[C@@H](C)[C@@H](O)[C@@H](C)[C@H](OC(C)=O)[C@@H]1C` [RIFAMPIN]: the IC50 result in assay [1] (cho-k1) was “Not Active”.
Consider `Cc1oncc1C(=O)Nc1ccc(C(F)(F)F)cc1` [LEFLUNOMIDE], for which the negative-log IC50 (pIC50) in assay [5] was 6.30. Further, the IC50 entry in assay [1] (cho-k1) is given as “Not Active”.
Consider `N#CC(C#N)=Cc1ccc(O)c(O)c1` [TYRPHOSTIN 23], for which the IC50 entry in assay [1] (cho-k1) and in assay [6] was “Not Active” each time.
